Test results as given in patent publication US20170224764A1, “THERAPEUTIC TARGETING OF MITOCHONDRIA TO PREVENT OSTEOARTHRITIS” (Cornell University, priority 2016, published 2017).
“Also recorded” adds a separate entry of the source.

Tests used:
Assay type in all cases: cell-based, bovids
[1] = tested on: chondrocytes in cartilage explants; test: Apoptosis, activated caspase 3/7 staining of impacted cartilage explants; settings: Example 6, 1 μM
Protocol: (§1) Tissue harvest. Full thickness cartilage explants were harvested from the knee joints of healthy bovids (n=8 animals, 1-3 days of age) within 48 hours of sacrifice using an 8 mm biopsy punch. Specimens were rinsed in phosphate-buffered saline (PBS), trimmed to a uniform thickness of 3 mm from the articular surface using a custom jig, and placed in cartilage explant media (phenol free DMEM containing 1% FBS, HEPES 0.025 ml/ml, penicillin 100 U/mL, streptomycin 100 U/mL and 0.1 g/L glucose).
(§2) Rapid impact injury model. Explants were subjected to injury using rapid-impact model or served as unimpacted controls (as described in Example 3). Briefly, explants were positioned in a well containing PBS under the plane-ended tip of a spring-loaded impacting device. The impactor was used to deliver a single, rapid cycle of unconfined axial compression (24.0±1.4 MPa peak stress; 53.8±5.3 GPa/s peak stress rate). Impact force was measured at 50 kHz by a load cell (PCBPiezotronics, Depew, N.Y.) attached to the impactor tip. Voltage from the load cell was recorded with a custom LabVIEW program (NI, Austin Tex.). The impact magnitude was adjusted by setting the deflection of the impactor's internal spring and mechanical parameters for each impact were calculated (as described in Example 3).
D-Arg-2′,6′-Dmt-Lys-Phe-NH2 (SS-31) treatment. […]

[2] = tested on: chondrocytes in cartilage explants; test: Chondrocyte viability, live/dead staining (calcein AM / ethidium homodimer) of impacted cartilage explants, confocal microscopy; settings: 1 μM
Protocol: (§3) Cartilage was harvested from the knee joints of 4 neonatal bovids (n=30 explants). Cartilage explants were subjected to unconfined compression (24.0±1.4 MPa peak stress; 53.8±5.3 GPa/s peak stress rate) using a validated single-impact subcritical damage model.
(§4) Cartilage explants were treated with 1 μM D-Arg-Dmt-Lys-Phe-NH2 (SS-31) immediately after injury (T0), one hour following injury (T1), or 6 hours after injury (T6), and then cultured for 7 days. Cartilage conditioned media (CCM) was sampled at T0, T1, T6, and every 24 hours after injury (T24-168) for 7 days.
(§5) Explants were stained with calcein AM and ethidium homodimer (for live and dead cells, respectively) to assess chondrocyte viability at T24 and T168 using confocal microscopy. Live, dead and total cell numbers were quantified in z-stacked digital images using a custom ImageJ macro. To quantify cell membrane damage, CCM was analyzed using a colorimetric lactate dehydrogenase (LDH) activity assay, and cumulative cell membrane damage over the 7-day incubation period was determined for each explant.
as §1, §2
D-Arg-2′,6′-Dmt-Lys-Phe-NH2 (SS-31) treatment. Following injury, explants were cut perpendicular to the articular surface into 2 hemicylinders using a custom cutting jig to ensure uniform geometry. Cartilage was kept moist at all times and each cut was performed with a fresh (unused) and lubricated cutting instrument. Handling of the experimental tissues was strictly minimized at each step. Explants were placed directly into an individual well of a 24-well untreated tissue culture plate containing a known volume (1.5 ml) of cartilage explant media. Cartilage hemicylinders were randomly assigned to one of 10 treatment groups (n=6/group, FIG. 22). Injured (I) and uninjured control (C) explants in the non-treated groups (ITno, CTno) were placed into wells containing only media. Explants in the time zero treatment groups (IT0, CT0) were placed directly into media containing 1 μM D-Arg-2′,6′-Dmt-Lys-Phe-NH2(SS-31). Explants in the one-hour treatment groups (IT1, CT1) were placed into media only and D-Arg-2′,6′-Dmt-Lys-Phe-NH2(1 μM) was added to the wells 1 hour after impact. Explants in the six-hour treatment groups (IT6, CT6) were placed into media only and D-Arg-2′,6′-Dmt-Lys-Phe-NH2 (1 μM) was added 6 hours after impact. Explants in the twelve-hour treatment groups (IT12, CT12) were placed into media only and D-Arg-2′,6′-Dmt-Lys-Phe-NH2 (1 μM) was added 12 hours after impact. Explants were maintained under standard tissue culture conditions (36° C. and 21% O2) for 7 days. Medium was sampled at 1, 6, and 12 hours, and at 3, 5, and 7 days after impact, and stored at −80° C. until biochemical assays were performed. […]

cartilage explants [3] = test: Cell membrane damage, lactate dehydrogenase (LDH) activity assay on cartilage conditioned media; settings: 1 μM
Protocol: as §3, §4, §5, §1
Rapid impact injury model. Explants were subjected to injury using rapid-impact model or served as unimpacted controls (as described in Example 3). […] Impact force was measured at 50 kHz by a load cell (PCBPiezotronics, Depew, N.Y.) attached to the impactor tip. Voltage from the load cell was recorded with a custom LabVIEW program (NI, Austin Tex.). The impact magnitude was adjusted by setting the deflection of the impactor's internal spring and mechanical parameters for each impact were calculated (as described in Example 3). […]

cartilage explants [4] = test: Cartilage matrix degradation, GAG loss into the media by DMMB assay; settings: 1 μM
Protocol: as §3
[…] Cartilage conditioned media (CCM) was sampled at T0, T1, T6, and every 24 hours after injury (T24-168) for 7 days.
Cartilage matrix degradation was quantified by measuring GAG loss into the media via DMMB assay.
as §1, §2
D-Arg-2′,6′-Dmt-Lys-Phe-NH2 (SS-31) treatment. […] Cartilage was kept moist at all times and each cut was performed with a fresh (unused) and lubricated cutting instrument. Handling of the experimental tissues was strictly minimized at each step. Explants were placed directly into an individual well of a 24-well untreated tissue culture plate containing a known volume (1.5 ml) of cartilage explant media. Cartilage hemicylinders were randomly assigned to one of 10 treatment groups (n=6/group, FIG. 22). Injured (I) and uninjured control (C) explants in the non-treated groups (ITno, CTno) were placed into wells containing only media. […]
Cartilage GAG loss. To determine if D-Arg-2′,6′-Dmt-Lys-Phe-NH2 could provide structural protection after impact injury, the loss of glycosaminoglycan (GAG) was determined by routine 1,9-dimethyl-methylene blue dye binding (DMMB) assay. […] Total GAG content was read […], and expressed as the total GAG released into cartilage conditioned media over the culture period per μg dry weight of cartilage. […]

D-Arg-2′,6′-Dmt-Lys-Phe-NH2
impact-induced apoptosis (caspase 3/7 positive cells) at 1 day ([1]; 1 day after cartilage injury, p=0.007): prevented impact-induced apoptosis; also recorded: equivalent to uninjured controls | impact-induced apoptosis (caspase 3/7 positive cells) at 7 days ([1]; 7 days after cartilage injury, p=0.04): prevented impact-induced apoptosis; also recorded: equivalent to uninjured controls | chondrocyte death at 24 hours ([2]; Example 2, treatment at 0, 1 or 6 hours after impact, versus untreated impacted cartilage): significantly reduced | chondrocyte viability / death in injury+treatment groups compared with un-injured controls ([2]; Example 6, day 1, treatment at 0, 1 or 6 hours): equivalent to uninjured controls | reduction in impact-induced chondrocyte death, treated versus untreated explants ([2]; Example 6, day 1, treatment at 0, 1 or 6 hours after impact): over 50% | cell death at 1 day post-injury ([2]; Example 6, injured groups treated at 0, 1 or 6 hours (IT0, IT1, IT6) versus untreated injured): potently reduced cell death; also recorded: effective at preventing chondrocyte death | effect of treatment time on cell death ([2]; Example 6, injury groups treated at 0, 1 or 6 hours, p=0.93): no effect of treatment time | chondrocyte death (% dead cells) compared with untreated, injured controls ([2]; Example 6, treatment at 0, 1, 6 or 12 hours after impact): reduced chondrocyte death; also recorded: reduced as compared to untreated, injured controls | impact-induced cell death on day 7 ([2]; Example 6, treatment immediately, at 1 hour or at 6 hours after impact): prevented impact-induced cell death to a similar degree; also recorded: effective at preventing chondrocyte death | cumulative cell membrane damage (LDH activity) over the 7 days following injury (cartilage explants [3]; Example 2, treated versus untreated impacted cartilage): prevents cell membrane damage; also recorded: lower in treated than untreated cartilage | cumulative cell membrane damage, LDH activity in cartilage conditioned media over the 7 days following injury (cartilage explants [3]; Example 6, injured, treated versus injured, untreated cartilage, p=0.0005): approximately twofold lower; also recorded: lower than injured, untreated explants | cumulative LDH in uninjured controls (cartilage explants [3]; Example 6, uninjured, treated versus untreated controls, p=0.05): lower cumulative LDH than untreated controls; also recorded: protective effect against cell membrane damage | impact-induced GAG loss into the media (cartilage explants [4]; Example 2, treatment at 0, 1 or 6 hours after impact, 96 hr post impact): decreased GAG loss | decrease of impact-induced GAG loss (cartilage explants [4]; Example 6, cumulative GAG loss, p=0.002): ~30% | cartilage matrix degeneration (GAG loss into the media) compared with uninjured controls (cartilage explants [4]; Example 6, treatment at 0, 1 or 6 hours after impact): equivalent to uninjured controls | cartilage matrix degeneration (GAG loss into the media) compared with untreated, injured controls (cartilage explants [4]; Example 6, treatment at 12 hours after impact): reduced cartilage matrix degeneration
